Measured values from patent US20110052730A1, “Leaves Extract of Panax sp., a Process of Making the Same and Uses Thereof” (UNIGEN, INC., priority 2008, published 2011).

Assay: Physicochemical properties of ginsenosides (soluble in)

C=C(CCC=C(C)C)C1CCC2(C)C1[C@H](O)CC1[C@@]3(C)CCC(OC4OC(CO)C(O)C(O)C4OC4OC(CO)C(O)C(O)C4O)C(C)(C)C3CC[C@]12C (some centres unmarked) [Rk1]
Soluble in: Alcohol

CC(C)=CC/C=C(/C)C1CCC2(C)C1[C@H](O)CC1[C@@]3(C)CCC(OC4OC(CO)C(O)C(O)C4OC4OC(CO)C(O)C(O)C4O)C(C)(C)C3CC[C@]12C (some centres unmarked) [Rg5]
Soluble in: Alcohol
